Laboratory results as given in PubChem BioAssay AID1963871 (Molecular Pharmacology Branch, DTP, NCI, 2024).

Tested on: KRAS-mutant PDC multicell tumor spheroid viability
Experiment: Anticancer human tumor 521955-158-R2-J5-PDC patient-derived pancreatic carcinoma cell line growth inhibition [KRAS2]
Conditions: for viability, T/C: stronger effect = lower value
How it was run: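 KRAS-mutant tumor cells were grown as spheroids with HUVEC endothelial cells and human MSCs as stroma. Targeted agents were tested alone and with KRAS pathway inhibitors. Doses started at or near clinical Cmax, or 10 microM, descending half-log.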

[1] = curve of first compound, second compound 0.1 µM
[2] = curve of first compound, second compound 0.316 µM
[3] = curve of first compound, second compound 1 µM
[4] = curve of first compound, second compound 3.16 µM
[5] = second compound 0.1 µM, first compound 0.000316 µM
[6] = second compound 0.1 µM, first compound 0.001 µM
[7] = second compound 0.1 µM, first compound 0.00316 µM
[8] = second compound 0.1 µM, first compound 0.01 µM
[9] = second compound 0.1 µM, first compound 0.0316 µM
[10] = second compound 0.1 µM, first compound 0.1 µM
[11] = second compound 0.316 µM, first compound 0.000316 µM
[12] = second compound 0.316 µM, first compound 0.001 µM
[13] = second compound 0.316 µM, first compound 0.00316 µM
[14] = second compound 0.316 µM, first compound 0.01 µM
[15] = second compound 0.316 µM, first compound 0.0316 µM
[16] = second compound 0.316 µM, first compound 0.1 µM
[17] = second compound 1 µM, first compound 0.000316 µM
[18] = second compound 1 µM, first compound 0.001 µM
[19] = second compound 1 µM, first compound 0.00316 µM
[20] = second compound 1 µM, first compound 0.01 µM
[21] = second compound 1 µM, first compound 0.0316 µM
[22] = second compound 1 µM, first compound 0.1 µM
[23] = second compound 3.16 µM, first compound 0.000316 µM
[24] = second compound 3.16 µM, first compound 0.001 µM
[25] = second compound 3.16 µM, first compound 0.00316 µM
[26] = second compound 3.16 µM, first compound 0.01 µM
[27] = second compound 3.16 µM, first compound 0.0316 µM
[28] = second compound 3.16 µM, first compound 0.1 µM
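Further: viability read after seven days of drug exposure.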

Structure (SMILES)	IC50 [1] [nM]	IC50 [2] [nM]	IC50 [3] [nM]	IC50 [4] [nM]	viability, T/C [5] [%]	viability, T/C [6] [%]	viability, T/C [7] [%]	viability, T/C [8] [%]	viability, T/C [9] [%]	viability, T/C [10] [%]	viability, T/C [11] [%]	viability, T/C [12] [%]	viability, T/C [13] [%]	viability, T/C [14] [%]	viability, T/C [15] [%]	viability, T/C [16] [%]	viability, T/C [17] [%]	viability, T/C [18] [%]	viability, T/C [19] [%]	viability, T/C [20] [%]	also measured
CC(C)n1nc(-c2ccc3oc(N)nc3c2)c2c(N)ncnc21 + COc1cc2nc(C)nc(NC(C)c3cc(N)cc(C(F)(F)F)c3)c2cc1OC1CCOC1	9.15	7.73	6.55	4.41	61.5	83.8	64.1	48.5	32.6	26	90.1	83.9	65.4	44.8	33.7	25.6	81	77.1	57.1	46.8	IC50 (curve of first compound, second compound 10 µM): 0.453 nM; viability, T/C [21]: 29.6%; viability, T/C [22]: 25.1%; viability, T/C [23]: 84.2%; viability, T/C [24]: 80.6%; viability, T/C [25]: 53.7%; viability, T/C [26]: 35.8%; viability, T/C [27]: 27.4%; viability, T/C [28]: 20.2%; viability, T/C (second compound 10 µM, first compound 0.000316 µM): 56.9%; viability, T/C (second compound 10 µM, first compound 0.001 µM): 32.4%; viability, T/C (second compound 10 µM, first compound 0.00316 µM): 34.7%; viability, T/C (second compound 10 µM, first compound 0.01 µM): 26.1%; viability, T/C (second compound 10 µM, first compound 0.0316 µM): 21.6%; viability, T/C (second compound 10 µM, first compound 0.1 µM): 19%
Cn1ncnc1[C@H]1c2n[nH]c(=O)c3cc(F)cc(c23)N[C@@H]1c1ccc(F)cc1	–	–	–	–	–	–	–	–	–	–	–	–	–	–	–	–	–	–	–	–	viability, T/C (compound 0.000316 µM): 104% [middle of 5 runs]; viability, T/C (compound 0.001 µM): 104% [middle of 5 runs]; viability, T/C (compound 0.00316 µM): 97.1% [middle of 5 runs]; viability, T/C (compound 0.01 µM): 90.9% [middle of 5 runs]; viability, T/C (compound 0.0316 µM): 90% [middle of 5 runs]; viability, T/C (compound 0.1 µM): 82.8% [middle of 5 runs]; IC50 (curve of compound): > 100 nM
CC(C)n1nc(-c2ccc3oc(N)nc3c2)c2c(N)ncnc21 + C=CC(=O)N1CCN(c2nc(OCC3CCCN3C)nc3c2CCN(c2cccc4cccc(C)c24)C3)CC1CC#N	6.8	6.39	3.33	< 0.316	94.6	90.7	62.5	43.6	31.5	24.3	92.6	90.6	59	44.6	27	22.7	76.5	70.2	49.1	33.5	IC50 (curve of first compound, second compound 0.0316 µM): 9.53 nM; viability, T/C (second compound 0.0316 µM, first compound 0.000316 µM): 105%; viability, T/C (second compound 0.0316 µM, first compound 0.001 µM): 97.1%; viability, T/C (second compound 0.0316 µM, first compound 0.00316 µM): 68.1%; viability, T/C (second compound 0.0316 µM, first compound 0.01 µM): 49.6%; viability, T/C (second compound 0.0316 µM, first compound 0.0316 µM): 36.9%; viability, T/C (second compound 0.0316 µM, first compound 0.1 µM): 25.6%; viability, T/C [21]: 23.3%; viability, T/C [22]: 18.3%; viability, T/C [23]: 33.7%; viability, T/C [24]: 17.6%; viability, T/C [25]: 25.6%; viability, T/C [26]: 7.26%; viability, T/C [27]: 17%; viability, T/C [28]: 14.5%
